Results published in PMC6792352, “Limited Chemical Structural Diversity Found to Modulate Thyroid Hormone Receptor in the Tox21 Chemical Library” (Environmental Health Perspectives, 2019).
Where a name gives a salt, the structure may show the parent alone.

Assay: in vitro
Conditions: rat, gh3-tre-luc cells

Row | Structure (SMILES) | CC50 at 24 h (AC50 (uM) modified / 1000) [µM] | also measured
1 | COCC(C)O (stereo not drawn) [1-Methoxy-2-propanol] | > 90 | 
2 | COCC(C)OC(C)=O (stereo not drawn) [1-Methoxy-2-propyl acetate] | > 90 | 
3 | COCC(C)N (stereo not drawn) [1-Methoxy-2-propylamine] | > 90 | 
4 | COc1ccc(C)cc1[N+](=O)[O-] [1-Methoxy-4-methyl-2-nitrobenzene] | > 90 | 
5 | COc1ccc(C)cc1 [1-Methoxy-4-methylbenzene] | > 90 | 
6 | CCC(C)(C)C1CCC(OC)CC1 (stereo not drawn) [1-Methoxy-4-tert-pentylcyclohexane] | > 90 | 
7 | CCC[N+]1(C)CCCCC1 [1-Methyl-1-propylpiperidinium bromide] | > 90 | 
8 | CCC[N+]1(C)CCCC1 [1-Methyl-1-propylpyrrolidinium bromide] | > 90 | 
9 | CCCCCCCCCCCCCCCCCC[n+]1ccn(C)c1 [1-Methyl-3-octadecylimidazolium hexafluorophosphate] | 9.82 | 
10 | Cc1cccc(Oc2ccccc2)c1 [1-Methyl-3-phenoxybenzene] | > 90 | 
11 | CCCn1cc[n+](C)c1 [1-Methyl-3-propylimidazolium iodide] | > 90 | 
12 | CCC(=O)OC1(c2ccccc2)CCN(C)CC1 [1-Methyl-4-phenyl-4-propionoxypiperidine hydrochloride] |  | CC50 at 24 h (AC50 (uM) modified / 1000, Tox21_110001=Tox21_112832, viability, 1 nM T3 present, 24 h): > 100 µM
13 | Cn1c(N)nc2nc[nH]c2c1=O [1-Methylguanine] | > 90 | 
14 | Cc1cccc2ccccc12 [1-Methylnaphthalene] | > 90 | 
15 | Cc1ccc2ccc3cccc4ccc1c2c34 [1-Methylpyrene] | > 90 | 
16 | CCCCCCCCCCCC(=O)OCC(O)CO (stereo not drawn) [1-Monolaurin] | > 90 | 
17 | NC(=O)Cc1cccc2ccccc12 [1-Naphthaleneacetamide] | > 90 | 
18 | N#[N+]c1ccc2c(S(=O)(=O)[O-])cccc2c1O [1-Naphthalenesulfonic acid, 6-diazo-5,6-dihydro-5-oxo, sodium salt] | > 90 | 
19 | Oc1cccc2ccccc12 [1-Naphthol] | > 90 | 
20 | O=[N+]([O-])c1ccccc1C(F)(F)F [1-Nitro-2-(trifluoromethyl)benzene] | > 90 | 
21 | Cc1ccc2ccccc2c1[N+](=O)[O-] [1-Nitro-2-methylnaphthalene] | > 90 | 
22 | O=[N+]([O-])c1cccc(C(F)(F)F)c1 [1-Nitro-3-(trifluoromethyl)benzene] | > 90 | 
23 | CCCC[N+](=O)[O-] [1-Nitrobutane] | > 90 | 

Row | Structure (SMILES) | CC50 at 24 h (AC50 (uM) modified / 1000) [µM] | also measured
24 | CCCCCC[N+](=O)[O-] [1-Nitrohexane] | > 90 | 
25 | O=[N+]([O-])c1cccc2ccccc12 [1-Nitronaphthalene] | > 90 | 
26 | CCC[N+](=O)[O-] [1-Nitropropane] |  | CC50 at 24 h (AC50 (uM) modified / 1000, Tox21_110001=Tox21_202289, viability, 1 nM T3 present, 24 h): > 90 µM
27 | O=[N+]([O-])c1ccc2ccc3cccc4ccc1c2c34 [1-Nitropyrene] | > 90 | 
28 | CCCCCCCCCO [1-Nonanol] | > 90 | 
29 | CCCCCCOc1cc(C)c(O)c(C)c1C [1-O-Hexyl-2,3,5-trimethylhydroquinone] | 42.6 | 
30 | COCC(O)CO (stereo not drawn) [1-O-Methylglycerol] | > 100 | 
31 | CCCCCCCCCCCCCCCCCCO [1-Octadecanol] | > 50 | 
32 | C=CCCCCCCCCCCCCCCCC [1-Octadecene] | > 5 | 
33 | CCCCCCCCN [1-Octanamine] | > 90 | 
34 | CCCCCCCCS(=O)(=O)Cl [1-Octanesulfonyl chloride] | > 90 | 
35 | CCCCCCCCS [1-Octanethiol] | > 90 | 
36 | CCCCCCCCO [1-Octanol] | > 90 | 
37 | C=CC(O)CCCCC (stereo not drawn) [1-Octen-3-ol] | > 90 | 
38 | C=CC(=O)CCCCC [1-Octen-3-one] | > 100 | 
39 | C=CCCCCCC [1-Octene] | > 90 | 
40 | CCCCCCCCN1CCCC1=O [1-Octyl-2-pyrrolidone] | > 90 | 
41 | C#CC(O)CCCCC (stereo not drawn) [1-Octyn-3-ol] | > 90 | 
42 | CCCCCCCCCCCCCCCO [1-Pentadecanol] | > 90 | 
43 | CCCCCO [1-Pentanol] | > 90 | 
44 | C=CCCC [1-Pentene] | > 90 | 
45 | CC(O)COc1ccccc1 (stereo not drawn) [1-Phenoxy-2-propanol] | > 90 | 
46 | CCC(O)c1ccccc1 (stereo not drawn) [1-Phenyl-1-propanol] | > 50 | 

Row | Structure (SMILES) | CC50 at 24 h (AC50 (uM) modified / 1000) [µM] | also measured
47 | O=C1C=CC(=O)N1c1ccccc1 [1-Phenyl-1H-pyrrole-2,5-dione] | 5.48 | 
48 | c1ccc(-n2cnnn2)cc1 [1-Phenyl-1H-tetrazole] | > 50 | 
49 | NC(=S)Nc1ccccc1 [1-Phenyl-2-thiourea] |  | CC50 at 24 h (AC50 (uM) modified / 1000, Tox21_110001=Tox21_201682, viability, 1 nM T3 present, 24 h): > 90 µM
50 | CN(C)N=Nc1ccccc1 [1-Phenyl-3,3-dimethyltriazene] | > 90 | 
51 | CC1=NN(c2ccccc2)C(=O)C1 [1-Phenyl-3-methyl-5-pyrazolone] | > 90 | 
52 | NC1(c2ccccc2)CCCCC1 [1-Phenylcyclohexylamine hydrochloride] |  | CC50 at 24 h (AC50 (uM) modified / 1000, Tox21_110001=Tox21_112881, viability, 1 nM T3 present, 24 h): 40.7 µM
53 | CCC(=O)OC(C)c1ccccc1 (stereo not drawn) [1-Phenylethyl propionate] | > 90 | 
54 | CCC(=O)c1ccccc1 [1-Phenylpropan-1-one] |  | CC50 at 24 h (AC50 (uM) modified / 1000, Tox21_110001=Tox21_302025, viability, 1 nM T3 present, 24 h): > 90 µM
55 | CCCCCCCCCCCc1ccccc1 [1-Phenylundecane] | > 90 | 
56 | NC(=O)Nc1ccccc1 [1-Phenylurea] | > 90 | 
57 | S=C(S)N1CCNCC1 [1-Piperazinecarbodithioic acid] |  | CC50 at 24 h (AC50 (uM) modified / 1000, Tox21_110001=Tox21_112759, viability, 1 nM T3 present, 24 h): > 50 µM
58 | OCCN1CCNCC1 [1-Piperazineethanol] | > 90 | 
59 | N#CC1(N2CCCCC2)CCCCC1 [1-Piperidinocyclohexanecarbonitrile] |  | CC50 at 24 h (AC50 (uM) modified / 1000, Tox21_110001=Tox21_111849, viability, 1 nM T3 present, 24 h): > 50 µM
60 | CCCO [1-Propanol] | > 90 | 
61 | CCCOCC(C)O (stereo not drawn) [1-Propoxy-2-propanol] | > 90 | 
62 | CCCCCCCCCCCCCCO [1-Tetradecanol] | > 90 | 
63 | C=CCCCCCCCCCCCC [1-Tetradecene] | > 90 | 
64 | OCC(O)CS (stereo not drawn) [1-Thioglycerol] | > 90 | 
65 | CCCCCCCCCCCCCO [1-Tridecanol] | > 90 | 
66 | C=CCCCCCCCCCCC [1-Tridecene] | > 5 | 
67 | CCCCCCCCCCCO [1-Undecanol] | > 90 | 
68 | FC(F)(F)c1ccccc1-n1ccnc1 [1-[2-(Trifluoromethyl)phenyl]-1H-imidazole] | > 50 | 
69 | CCN(CC)c1ccc(N=Nc2ccc(S(=O)(=O)N(C)C)cc2)c(S(=O)(=O)NCC[n+]2ccccc2)c1 [1-[2-({[5-Diethylamino)-2-{[4-(dimethylsulfamoyl)phenyl]diazenyl}phenyl]sulfonyl}amino)ethyl]pyridinium chloride] | > 50 | 

Row | Structure (SMILES) | CC50 at 24 h (AC50 (uM) modified / 1000) [µM] | also measured
70 | CCO[Si](CCCNC(N)=O)(OCC)OCC [1-[3-(Triethoxysilyl)propyl]urea] | > 90 | 
71 | C=C1/C(=C\C=C2/CCC[C@]3(C)[C@@H]([C@H](C)/C=C/[C@H](C)C(C)C)CC[C@@H]23)C[C@@H](O)C[C@@H]1O [1-alpha-Hydroxyergocalciferol] | 37.5 | 
72 | CCCCCCCCCCCCCCCCI [1-iodohexadecane] | > 20 | 
73 | CC(O)COC(C)(C)C (stereo not drawn) [1-tert-Butoxy-2-propanol] | > 90 | 
74 | Cc1c(C)c([N+](=O)[O-])c(C(C)(C)C)c([N+](=O)[O-])c1C [1-tert-Butyl-3,4,5-trimethyl-2,6-dinitrobenzene] | 73.9 | 
75 | CC(O)CN(CCCN(C)C)CCCN(C)C (stereo not drawn) [1-{Bis[3-(dimethylamino)propyl]amino}propan-2-ol] | > 90 | 
76 | FC(F)(F)C(F)(F)C(F)(F)C(F)(F)C(F)(F)C(F)(F)CCI [1H,1H,2H,2H-Perfluorooctyl iodide] | > 50 | 
77 | O=c1oc(=O)c2cc3c(=O)oc(=O)c3cc12 [1H,3H-Benzo(1,2-c:4,5-c')difuran-1,3,5,7-tetrone] | > 90 | 
78 | O=C1OC(=O)c2cccc3cccc1c23 [1H,3H-Naphtho(1,8-cd)pyran-1,3-dione] | > 90 | 
79 | O=C1NC(=O)c2cccc3cccc1c23 [1H-Benzo[de]isoquinoline-1,3(2H)-dione] | > 90 | 
80 | N=C1N=C(N)c2ccccc21 [1H-Isoindole-1,3(2H)-diimine] | 35.8 | 
81 | CC(=O)c1ccc(Cl)c(Cl)c1Cl [2',3',4'-Trichloroacetophenone] | > 90 | 
82 | Nc1ncnc2c1ncn2[C@H]1CC[C@@H](CO)O1 [2',3'-Dideoxyadenosine] | > 90 | 
83 | Nc1ccn([C@H]2CC[C@@H](CO)O2)c(=O)n1 [2',3'-Dideoxycytidine] | > 50 | 
84 | O=C1OC2(c3ccccc31)c1cc(Br)c(O)c(Br)c1Oc1c2cc(Br)c(O)c1Br [2',4',5',7'-Tetrabromofluorescein] | 5.55 | 
85 | CCCC(=O)c1cc(O)c(O)cc1O [2',4',5'-Trihydroxybutyrophenone] | > 90 | 
86 | CC(=O)c1ccc2ccccc2c1 [2'-Acetonaphthone] | > 90 | 
87 | Brc1ccc(Oc2ccc(Br)cc2Br)c(Br)c1 [2,2'4,4'-Tetrabromodiphenyl ether] |  | CC50 at 24 h (AC50 (uM) modified / 1000, Tox21_110001=Tox21_200327, viability, 1 nM T3 present, 24 h): 83.3 µM
88 | OCCN(CCO)CCN(CCO)CCO [2,2',2'',2'''-(1,2-Ethanediyldinitrilo)tetrakisethanol] | > 90 | 
89 | c1cc(C(c2ccc(OCC3CO3)cc2)c2ccc(OCC3CO3)cc2)ccc1OCC1CO1 (stereo not drawn) [2,2',2''-[Methanetriyltris(benzene-4,1-diyloxymethanediyl)]trioxirane] | 19.4 | 
90 | Brc1cc(Br)c(Oc2cc(Br)c(Br)cc2Br)cc1Br [2,2',4,4',5,5'-Hexabromodiphenyl ether] | > 50 | 
